Test results: ChEMBL document CHEMBL1201862, “PubChem BioAssay data set” (2004)
The source made the active and inactive calls.

Columns and labels:
[1] = biological target: T1, Ubiquitin-conjugating enzyme E2 N (Homo sapiens, UniProt P61088); assay type: functional;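 further: Dose-response confirmation in a TR-FRET assay detecting UBC13-driven polyubiquitin chain formation, inhibition measured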
T1 sequence (P61088 whole entry): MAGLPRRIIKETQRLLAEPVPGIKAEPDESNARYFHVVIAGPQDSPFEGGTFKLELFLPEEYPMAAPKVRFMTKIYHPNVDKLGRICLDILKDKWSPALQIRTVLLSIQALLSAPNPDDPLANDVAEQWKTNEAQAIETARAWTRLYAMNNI

[2] = biological target: Delta-type opioid receptor (Homo sapiens, UniProt P41143); assay: Counterscreen for agonists of heterodimerization of the mu 1 (OPRM1) and delta 1 (OPRD1) opioid receptors: Luminescence-based cell-based high throughput dose response assay to identify agonists of OPRD1 homodimerization. [Related pubchem assays (depositor defined):AID504326, AID504355, AID504692, AID504904, AID504905]; assay type: functional
[3] = biological target: Mu-type opioid receptor (Homo sapiens, UniProt P35372); assay: Counterscreen for agonists of heterodimerization of the mu 1 (OPRM1) and delta 1 (OPRD1) opioid receptors: Luminescence-based cell-based high throughput dose response assay to identify agonists of OPRM1 homodimerization.; assay type: functional;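 further: U2OS cells expressing OPRM1 and beta-arrestin as split beta-galactosidase partners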
[4] = biological target: 5-hydroxytryptamine receptor 5A (Homo sapiens, UniProt P47898); assay: Counterscreen for agonists of OPRM1-OPRD1 heterodimerization: luminescence-based cell-based high throughput dose response assay to identify agonists of 5-hydroxytryptamine (serotonin) 5A receptor (HTR5A). [Related pubchem assays (depositor defined):AID504326, AID504355, AID504692, AID504904, AID504905]; assay type: functional
[5] = biological target: T2, Tyrosine-protein phosphatase non-receptor type 7 (Homo sapiens, UniProt P35236); assay type: functional
T2 sequence (P35236 whole entry): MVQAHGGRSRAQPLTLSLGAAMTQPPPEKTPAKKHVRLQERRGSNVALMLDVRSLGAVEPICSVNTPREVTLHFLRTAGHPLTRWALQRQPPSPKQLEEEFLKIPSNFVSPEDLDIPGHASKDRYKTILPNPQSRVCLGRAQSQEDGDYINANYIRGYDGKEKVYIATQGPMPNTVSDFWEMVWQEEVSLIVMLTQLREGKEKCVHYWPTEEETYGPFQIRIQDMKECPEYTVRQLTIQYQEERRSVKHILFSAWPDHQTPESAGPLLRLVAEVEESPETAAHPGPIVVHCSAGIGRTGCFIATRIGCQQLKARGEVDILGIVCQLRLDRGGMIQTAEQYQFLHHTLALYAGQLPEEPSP

[6] = biological target: Glyceraldehyde-3-phosphate dehydrogenase (Homo sapiens, UniProt P04406)
[7] = biological target: T3, Dual specificity protein phosphatase 6 (Rattus norvegicus, UniProt Q64346)
T3 sequence (Q64346 whole entry): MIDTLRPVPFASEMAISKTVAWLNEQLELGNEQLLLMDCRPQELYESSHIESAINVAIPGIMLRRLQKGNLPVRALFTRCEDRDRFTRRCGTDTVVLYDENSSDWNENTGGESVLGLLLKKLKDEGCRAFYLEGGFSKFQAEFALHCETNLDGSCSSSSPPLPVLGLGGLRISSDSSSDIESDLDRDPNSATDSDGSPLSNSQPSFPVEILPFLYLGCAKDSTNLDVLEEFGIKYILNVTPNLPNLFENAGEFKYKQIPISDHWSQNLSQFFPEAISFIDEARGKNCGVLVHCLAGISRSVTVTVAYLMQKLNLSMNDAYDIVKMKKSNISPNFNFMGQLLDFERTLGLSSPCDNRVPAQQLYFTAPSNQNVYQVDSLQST

[8] = biological target: T3, Dual specificity protein phosphatase 6; assay type: functional
[9] = biological target: T4, Short transient receptor potential channel 4 (Mus musculus, UniProt Q9QUQ5); assay: calcium entry via TRPC4 opening agents – cell-based, HEK293 TRPC4/mu-opioid, Fluo-4 calcium, dose response (AID 434937); assay type: functional
T4 sequence (Q9QUQ5 whole entry): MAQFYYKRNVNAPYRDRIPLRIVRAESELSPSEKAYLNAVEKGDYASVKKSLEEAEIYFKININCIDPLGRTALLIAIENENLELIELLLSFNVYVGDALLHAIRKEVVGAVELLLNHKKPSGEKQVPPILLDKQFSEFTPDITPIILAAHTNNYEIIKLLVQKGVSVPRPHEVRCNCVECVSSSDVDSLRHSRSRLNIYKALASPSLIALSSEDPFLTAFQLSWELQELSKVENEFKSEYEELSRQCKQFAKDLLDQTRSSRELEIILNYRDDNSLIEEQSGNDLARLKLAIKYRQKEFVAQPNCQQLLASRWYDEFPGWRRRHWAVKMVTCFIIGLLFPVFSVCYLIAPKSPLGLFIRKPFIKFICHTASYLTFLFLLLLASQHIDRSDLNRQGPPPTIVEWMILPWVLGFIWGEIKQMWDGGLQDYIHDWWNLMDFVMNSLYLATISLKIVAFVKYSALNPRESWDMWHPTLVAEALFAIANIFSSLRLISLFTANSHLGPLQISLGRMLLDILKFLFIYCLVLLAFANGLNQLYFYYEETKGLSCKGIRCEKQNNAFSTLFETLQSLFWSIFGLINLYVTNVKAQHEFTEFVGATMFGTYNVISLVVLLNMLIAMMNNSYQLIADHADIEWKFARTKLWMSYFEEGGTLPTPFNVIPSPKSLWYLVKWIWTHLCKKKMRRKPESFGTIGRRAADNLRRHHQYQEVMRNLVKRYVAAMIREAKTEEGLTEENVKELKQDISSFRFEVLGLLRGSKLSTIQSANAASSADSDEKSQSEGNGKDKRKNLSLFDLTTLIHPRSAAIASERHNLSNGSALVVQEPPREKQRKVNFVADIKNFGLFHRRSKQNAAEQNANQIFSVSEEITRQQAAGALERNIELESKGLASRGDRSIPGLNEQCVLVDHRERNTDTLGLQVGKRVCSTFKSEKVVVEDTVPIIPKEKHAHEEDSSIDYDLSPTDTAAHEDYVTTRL

[10] = cells; assay type: functional, cell-based
[11] = cells; assay type: functional, cell-based; remark: listed apart in the source
[12] = biological target: Trypsin (Sus scrofa, UniProt P00761); assay: trypsin protease activity blockade – biochemical, quenched peptide fluorescence, cherry-pick, selectivity assay for Rce1 protease inhibitor project, dose response (AID 488789)
[13] = biological target: T5, CAAX prenyl protease 2 (Saccharomyces cerevisiae S288c, UniProt Q03530); assay type: biochemical
T5 sequence (Q03530 whole entry): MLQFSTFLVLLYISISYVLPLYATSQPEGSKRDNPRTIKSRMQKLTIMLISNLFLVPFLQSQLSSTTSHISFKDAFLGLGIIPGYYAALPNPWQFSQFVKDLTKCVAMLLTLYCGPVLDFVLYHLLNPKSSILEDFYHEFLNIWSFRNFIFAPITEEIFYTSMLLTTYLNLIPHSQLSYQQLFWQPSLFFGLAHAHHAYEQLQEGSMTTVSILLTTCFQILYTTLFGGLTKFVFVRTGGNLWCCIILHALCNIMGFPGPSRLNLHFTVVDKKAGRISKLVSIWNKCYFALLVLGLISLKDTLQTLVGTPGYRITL

[14] = biological target: T6, Replicative DNA helicase DnaB (Mycobacterium tuberculosis, UniProt P9WMR3); assay: DnaB intein splicing inhibitors, dose response, biochemical, cell-free fluorescence (AID 449749); assay type: functional
T6 sequence (P9WMR3 whole entry): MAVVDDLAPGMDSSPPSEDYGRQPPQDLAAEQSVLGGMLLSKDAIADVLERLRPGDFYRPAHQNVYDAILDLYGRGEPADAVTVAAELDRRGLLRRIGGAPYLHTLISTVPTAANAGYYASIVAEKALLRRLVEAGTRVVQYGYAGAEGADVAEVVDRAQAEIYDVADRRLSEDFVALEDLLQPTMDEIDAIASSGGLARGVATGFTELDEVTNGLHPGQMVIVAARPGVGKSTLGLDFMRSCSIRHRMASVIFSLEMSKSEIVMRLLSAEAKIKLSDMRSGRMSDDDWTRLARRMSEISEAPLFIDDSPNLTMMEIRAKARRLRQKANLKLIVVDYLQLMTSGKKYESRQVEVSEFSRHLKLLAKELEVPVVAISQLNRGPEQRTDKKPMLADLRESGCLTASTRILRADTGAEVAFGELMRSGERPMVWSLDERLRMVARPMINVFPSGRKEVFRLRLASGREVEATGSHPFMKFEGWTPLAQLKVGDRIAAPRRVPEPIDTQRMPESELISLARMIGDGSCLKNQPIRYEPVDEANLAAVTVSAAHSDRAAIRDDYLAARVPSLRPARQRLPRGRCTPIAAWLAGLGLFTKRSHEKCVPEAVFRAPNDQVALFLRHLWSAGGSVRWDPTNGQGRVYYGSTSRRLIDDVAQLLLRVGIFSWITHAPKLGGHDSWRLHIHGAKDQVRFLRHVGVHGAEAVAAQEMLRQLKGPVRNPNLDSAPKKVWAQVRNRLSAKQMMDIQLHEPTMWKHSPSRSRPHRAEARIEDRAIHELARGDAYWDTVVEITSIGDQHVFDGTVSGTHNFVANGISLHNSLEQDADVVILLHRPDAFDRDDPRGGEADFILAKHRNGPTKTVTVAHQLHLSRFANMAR

[15] = biological target: T7, Protein RecA (Mycobacterium tuberculosis, UniProt P9WHJ3); assay: Fluorescence Cell-Free Homogeneous Dose Retest to Identify Inhibitors of RecA-Intein Splicing Activity. [Related pubchem assays (depositor defined):AID2097, AID2223, AID489010, AID492950]; assay type: functional
T7 sequence (P9WHJ3 whole entry): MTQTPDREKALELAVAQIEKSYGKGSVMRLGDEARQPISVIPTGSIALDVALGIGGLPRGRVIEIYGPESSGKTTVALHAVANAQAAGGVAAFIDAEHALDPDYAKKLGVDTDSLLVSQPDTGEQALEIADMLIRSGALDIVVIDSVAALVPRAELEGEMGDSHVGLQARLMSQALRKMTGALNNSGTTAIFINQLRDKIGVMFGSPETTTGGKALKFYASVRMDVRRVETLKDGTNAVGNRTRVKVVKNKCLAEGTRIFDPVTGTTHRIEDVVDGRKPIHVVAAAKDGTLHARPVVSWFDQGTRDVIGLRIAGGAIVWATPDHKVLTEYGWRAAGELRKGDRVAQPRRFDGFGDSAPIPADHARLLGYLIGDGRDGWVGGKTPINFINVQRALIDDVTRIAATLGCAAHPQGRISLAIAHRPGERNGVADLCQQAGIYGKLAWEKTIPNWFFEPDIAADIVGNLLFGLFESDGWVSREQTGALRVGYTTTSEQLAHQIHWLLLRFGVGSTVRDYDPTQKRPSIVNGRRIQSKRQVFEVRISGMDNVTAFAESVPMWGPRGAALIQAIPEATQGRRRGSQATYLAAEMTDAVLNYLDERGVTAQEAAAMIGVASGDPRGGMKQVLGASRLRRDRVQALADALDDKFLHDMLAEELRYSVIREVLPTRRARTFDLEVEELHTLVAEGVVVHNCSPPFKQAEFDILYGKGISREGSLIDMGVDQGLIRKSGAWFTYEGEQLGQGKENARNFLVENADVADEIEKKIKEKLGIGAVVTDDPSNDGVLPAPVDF

[16] = biological target: T8, CAAX prenyl protease 2 (Homo sapiens, UniProt Q9Y256); assay: inhibition of Ras-converting CAAX protease Rce1 – biochemical, yeast membranes, quenched-peptide fluorescence, cherry-pick, dose response (AID 588849)
T8 sequence (Q9Y256 whole entry): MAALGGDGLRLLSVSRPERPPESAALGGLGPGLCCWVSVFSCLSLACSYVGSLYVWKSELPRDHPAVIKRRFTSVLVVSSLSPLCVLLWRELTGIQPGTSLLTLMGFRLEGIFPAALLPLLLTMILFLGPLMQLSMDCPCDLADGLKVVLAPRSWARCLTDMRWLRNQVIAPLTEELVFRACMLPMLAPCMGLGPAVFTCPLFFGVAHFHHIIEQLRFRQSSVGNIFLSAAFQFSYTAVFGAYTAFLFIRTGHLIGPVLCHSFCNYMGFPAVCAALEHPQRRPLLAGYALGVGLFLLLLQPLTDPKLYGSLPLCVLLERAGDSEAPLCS

[17] = reduction of Shn3 3'UTR-driven luciferase in osteoblasts – cell-based, Clone20 osteoblasts, firefly luciferase, cherry-picked, dose response (AID 624132); assay type: functional;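 further: firefly luciferase luminescence from reporter carrying the Shn3 3'UTR in osteoblasts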
[18] = loss of viability in HepG2 cells – cell-based, CellTiter-Glo, cherry-picked, cytotoxicity control for Shn3 inhibitor project, dose response (AID 624134); assay type: functional
[19] = non-specific 3'UTR reporter inhibition in Clone20-Shn3RL – cell-based, Renilla luciferase, cherry-picked, counter-screen for Shn3 inhibitor project, dose response (AID 624133); assay type: functional

Sequence of Glyceraldehyde-3-phosphate dehydrogenase (P04406 whole entry): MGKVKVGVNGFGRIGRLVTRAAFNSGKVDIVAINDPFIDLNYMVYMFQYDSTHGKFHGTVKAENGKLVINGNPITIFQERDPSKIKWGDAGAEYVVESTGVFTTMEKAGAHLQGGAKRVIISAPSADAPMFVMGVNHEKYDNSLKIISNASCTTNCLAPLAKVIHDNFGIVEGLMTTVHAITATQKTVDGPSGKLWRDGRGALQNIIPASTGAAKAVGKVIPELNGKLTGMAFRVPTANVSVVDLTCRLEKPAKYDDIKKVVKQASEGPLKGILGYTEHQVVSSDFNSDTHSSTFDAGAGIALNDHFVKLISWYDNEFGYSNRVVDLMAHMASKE
Sequence of 5-hydroxytryptamine receptor 5A (P47898 whole entry): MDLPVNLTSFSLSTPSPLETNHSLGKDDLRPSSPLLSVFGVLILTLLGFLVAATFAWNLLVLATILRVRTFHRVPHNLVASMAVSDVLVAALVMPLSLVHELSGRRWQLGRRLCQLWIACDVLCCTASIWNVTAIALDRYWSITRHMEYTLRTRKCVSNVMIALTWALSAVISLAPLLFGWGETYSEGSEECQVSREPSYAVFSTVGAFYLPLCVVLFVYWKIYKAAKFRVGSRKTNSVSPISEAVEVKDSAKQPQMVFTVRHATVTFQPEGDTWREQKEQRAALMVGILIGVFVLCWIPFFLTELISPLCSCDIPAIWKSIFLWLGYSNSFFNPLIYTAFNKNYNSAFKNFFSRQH
Sequence of Mu-type opioid receptor (P35372 whole entry): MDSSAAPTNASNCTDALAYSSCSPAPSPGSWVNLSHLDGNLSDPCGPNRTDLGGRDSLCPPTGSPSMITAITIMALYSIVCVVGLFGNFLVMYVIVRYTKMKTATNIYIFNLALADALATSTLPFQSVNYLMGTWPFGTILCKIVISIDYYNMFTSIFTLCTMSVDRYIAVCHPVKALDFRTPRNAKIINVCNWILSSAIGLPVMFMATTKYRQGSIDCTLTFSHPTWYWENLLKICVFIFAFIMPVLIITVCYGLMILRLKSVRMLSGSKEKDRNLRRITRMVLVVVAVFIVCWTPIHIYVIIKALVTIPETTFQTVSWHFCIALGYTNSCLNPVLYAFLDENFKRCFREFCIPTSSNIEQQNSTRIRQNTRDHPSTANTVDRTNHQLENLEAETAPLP
Sequence of Delta-type opioid receptor (P41143 whole entry): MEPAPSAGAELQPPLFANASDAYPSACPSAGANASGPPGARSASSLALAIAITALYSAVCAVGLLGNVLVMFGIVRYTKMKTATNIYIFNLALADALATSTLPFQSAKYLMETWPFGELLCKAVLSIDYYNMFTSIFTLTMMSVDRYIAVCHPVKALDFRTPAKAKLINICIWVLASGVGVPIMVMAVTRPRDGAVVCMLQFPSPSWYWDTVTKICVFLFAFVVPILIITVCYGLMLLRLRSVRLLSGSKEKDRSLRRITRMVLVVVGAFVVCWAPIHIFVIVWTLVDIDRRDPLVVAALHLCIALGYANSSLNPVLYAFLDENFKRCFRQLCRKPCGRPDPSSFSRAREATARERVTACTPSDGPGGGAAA
Sequence of Trypsin (P00761 whole entry): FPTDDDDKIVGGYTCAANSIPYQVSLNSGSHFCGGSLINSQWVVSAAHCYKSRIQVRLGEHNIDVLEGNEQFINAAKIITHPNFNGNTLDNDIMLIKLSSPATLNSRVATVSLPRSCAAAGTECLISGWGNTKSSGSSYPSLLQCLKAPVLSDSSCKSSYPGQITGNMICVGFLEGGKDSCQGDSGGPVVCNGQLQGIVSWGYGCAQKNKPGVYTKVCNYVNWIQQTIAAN

CC[C@@H](C)[C@@H]1CN([C@@H](CN2CCC[C@H]2CN2C(N)=NC[C@H]2C(C)C)C(C)C)C(=N)N1CCc1ccc(Cl)c(Cl)c1
IC50 [1]: > 20 µM (inactive) | EC50 [2]: > 92.5 µM (inactive) | EC50 [3]: 10.9 µM (inactive) | EC50 [4]: > 92.5 µM (inactive)

COCCCNc1nc(=O)n(-c2ccc(F)cc2)c(=O)[nH]1
IC50 [5]: > 100 µM (not active) | IC50 [6]: > 100 µM (not active) | IC50 [7]: > 100 µM (inactive) | IC50 [8]: > 100 µM (inactive)

CN(C)c1ccc(C(CNC(=O)Cc2cccc3ccccc23)N(C)C)cc1 (stereo not given)
EC50 [9]: 944 nM (active) | EC50 [2]: > 92.4 µM (inactive) | EC50 [3]: > 92.4 µM (inactive) | EC50 [4]: > 92.4 µM (inactive)

Cn1c(=O)n(CC(N)=O)c(=O)n(-c2ccccc2)c1=O
IC50 [5]: > 100 µM (not active) | IC50 [6]: > 100 µM (not active) | IC50 [7]: > 100 µM (inactive) | IC50 [8]: > 100 µM (inactive)

Clc1cccc(Cl)c1COc1nnc(-c2cccs2)c(-c2cccs2)n1
IC50 [5]: > 100 µM (not active) | IC50 [6]: > 100 µM (not active) | IC50 [7]: > 100 µM (inactive) | IC50 [8]: > 100 µM (inactive)

COc1ccccc1-c1cc(C(F)(F)F)nc(S(=O)(=O)CCCC(=O)NCc2ccc(F)cc2)n1
EC50 [10]: > 350 µM (not active) | EC50 [11]: > 350 µM (not active) | AC50 [12]: 2.3 µM (active) | AC50 [13]: 7.9 µM (active) | AC50 [14]: 5.72 µM (active) | EC50 [15]: 3.61 µM (active) | AC50 [16]: 10.8 µM (active) | AC50 [17]: 4.43 µM (active) | AC50 [18]: > 70 µM (inactive) | AC50 [19]: 23.6 µM (active)
